The target in one experiment is T1, human glucagon receptor (Homo sapiens, UniProt P47871).
T1 construct: made in house; host or cells: FreeStyle CHO cells, transient transfection with pMSRαneo/hGCGR; membrane fraction (35,000 rpm pellet)
T1 sequence (P47871 26-477): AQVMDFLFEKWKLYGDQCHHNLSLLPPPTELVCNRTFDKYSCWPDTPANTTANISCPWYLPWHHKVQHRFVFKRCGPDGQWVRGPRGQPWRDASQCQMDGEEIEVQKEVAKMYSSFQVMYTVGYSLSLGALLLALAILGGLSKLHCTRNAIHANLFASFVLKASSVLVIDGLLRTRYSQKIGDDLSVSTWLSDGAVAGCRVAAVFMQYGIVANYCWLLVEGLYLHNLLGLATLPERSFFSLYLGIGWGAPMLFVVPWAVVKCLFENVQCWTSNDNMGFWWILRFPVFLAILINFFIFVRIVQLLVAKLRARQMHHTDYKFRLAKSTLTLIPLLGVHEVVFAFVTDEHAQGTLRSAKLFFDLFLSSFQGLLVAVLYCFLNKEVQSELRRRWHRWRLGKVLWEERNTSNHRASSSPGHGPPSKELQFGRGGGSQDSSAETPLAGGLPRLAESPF
Kind of experiment: Glucagon binding inhibitory activity ([125I]-glucagon binding to glucagon receptor membrane protein). The following applies: test compound 10 μM; 0.4% DMSO = 0%, non-labeled glucagon 1 μM = 100%. The procedure:
The glucagon binding inhibitory action of the compound of the present invention was evaluated by the following method.
(1) Cloning of Human Glucagon Receptor Gene
Human glucagon receptor gene was cloned by PCR reaction using human pancreas Marathon-ready cDNA (Clontech) as a template and the following primer set.
PCR reaction was performed using Advantage 2 polymerase (Clontech) and according to the attached protocol. The obtained PCR product was electrophoresed on an agarose gel (1%). An about 1.4 kb of DNA fragment containing a glucagon receptor gene was recovered from the gel and digested with restriction enzymes EcoRI and NotI. DNA treated with the restriction enzymes was electrophoresed on an agarose gel (1%). An about 1.4 kb of DNA fragment was recovered and ligated to plasmid pMSRαneo digested with restriction enzymes EcoRI and NotI to construct a human-type glucagon receptor expression plasmid DNA “pMSRαneo/hGCGR”.
(2) Preparation of Glucagon Receptor Membrane Protein
A human-type glucagon receptor was expressed using FreeStyle CHO Expression System (Invitrogen). A transient expression in FreeStyle CHO cell was performed using a human-type glucagon receptor expression plasmid DNA “pMSRαneo/hGCGR” and according to the manual attached to the FreeStyle CHO Expression System. The above-mentioned DNA was transfected and the cultured with shaking for 2 days (37° C., 8% CO2, 125 rpm). 2400 ml of culture medium was centrifuged at 2,000 rpm for 10 min and the cells were collected. The collected cells were washed with PBS, suspended in homogenate buffer [10 mM NaHCO3 (pH 7.4), 1 mM EDTA, Complete EDTA-free (Roche, 1 tablet/50 ml)] and disrupted by polytron cell disrupter (Kinematica AG). Disruption solution was centrifuged at 2,000 rpm for 10 min and the supernatant was collected.
(3) Measurement of Glucagon Binding Inhibitory Activity
The plate was stood for 90 min at room temperature. The reaction solution was transferred from the reaction plate to a 96 well unifilter GF/C plate (Perkin Elmer Inc.) using a cell harvester (Perkin Elmer Inc.) and the membrane fraction was collected on the filter by suction. The filter was presoaked in 2 mg/ml of polyethyleneimine to prevent non-specific adsorption of labeled ligand. The filter was washed 4 times with a reaction buffer and dried for 2 hr at 42° C. To each well was added 25 μl of scintillator (MicroScint0; Perkin Elmer Inc.), and the fluorescence amount was measured using a microplate scintillation counter (TopCount NXT™; Perkin Elmer Inc.).
In addition, the inhibitory rate (%) of the well added with the test compound (10 μM; containing 0.4% DMSO) was calculated, using the reaction rate of the well added only with 0.4% DMSO as 0% inhibitory rate, and the reaction rate of the well added with non-labeled glucagon (final concentration 1 μM) as 100% inhibitory rate.
As to `Cc1c(C(Nc2ccc(C(=O)N(C)CCC(=O)O)nc2)C2CCCCC2)oc2ccc(F)cc12` (stereo not drawn) [Example A57], the “inhibitory rate (%) at 10 μM” value is reported as 85%.

Staying with this experiment, now noted: test compound 10 μM; 0.4% DMSO = 0%, non-labeled glucagon 1 μM = 100%; read-out: inhibitory rate (%) at 10 μM.
Consider `Cc1c(C(Nc2ccc(C(=O)N(C)CCC(=O)O)cc2)C2CCCCC2)sc2ccncc12` (stereo not drawn) [Example A139, 3-{[(4-{[cyclohexyl(3-methylthieno[3,2-c]pyridin-2-yl)methyl]amino}phenyl)carbonyl](methyl)amino}propanoic acid], for which the inhibition at 10 µM turned out to be 76%.

Take `Cc1c(C(Nc2ccc(C(=O)NCCC(=O)O)cc2)C2CCCCC2)oc2ccc(C#N)cc12` (stereo not drawn) [Example A98, 3-{[(4-{[(5-cyano-3-methyl-1-benzofuran-2-yl)(cyclohexyl)methyl]amino}phenyl)carbonyl]amino}propanoic acid]: the inhibition at 10 µM was found to be 78%.

Consider `COCc1nn(-c2cccc(C(F)(F)F)n2)cc1C(Nc1ccc(C(=O)N(C)CCC(=O)O)cc1)C1CCCCC1` (stereo not drawn) [Example 90, 3-[({4-[(cyclohexyl{3-(methoxymethyl)-1-[6-(trifluoromethyl)pyridin-2-yl]-1H-pyrazol-4-yl}methyl)amino]phenyl}carbonyl)(methyl)amino]propanoic acid], for which the inhibition at 10 µM came out at 66%.

Take `Cc1c(C(Nc2ccc(C(=O)N(C)CCC(=O)O)cn2)C2CCCCC2)oc2c(F)cc(F)cc12` (stereo not drawn) [Example A185, 3-{[(6-{[cyclohexyl(5,7-difluoro-3-methyl-1-benzofuran-2-yl)methyl]amino}pyridin-3-yl)carbonyl](methyl)amino}propanoic acid]: the inhibition at 10 µM is 71%.

Consider `COCCCCC(Nc1ccc(C(=O)N(C)CCC(=O)O)cc1)c1oc2ccc(OC)cc2c1C` (stereo not drawn) [Example A124, 3-{[(4-{[5-methoxy-1-(5-methoxy-3-methyl-1-benzofuran-2-yl)pentyl]amino}phenyl)carbonyl](methyl)amino}propanoic acid], for which the inhibition at 10 µM turned out to be 51%.

For `CCc1oc2ccccc2c1C(Nc1ccc(C(=O)NCCC(=O)O)cc1)C1CCCCC1` (stereo not drawn) [Example A29, 3-{[(4-{[cyclohexyl(2-ethyl-1-benzofuran-3-yl)methyl]amino}phenyl)carbonyl]amino}propanoic acid], the inhibition at 10 µM was 77%.

For the compound `CCn1nc(-c2ccc(OC(F)(F)F)cc2)cc1C(Nc1ccc(C(=O)N(C)CCC(=O)O)cc1)C1CCCCC1` (stereo not drawn) [Example 58, 3-[({4-[(cyclohexyl{1-ethyl-3-[4-(trifluoromethoxy)phenyl]-1H-pyrazol-5-yl}methyl)amino]phenyl}carbonyl)(methyl)amino]propanoic acid], the inhibition at 10 µM was determined as 69%.

On to `Cc1c(C(Nc2ccc(C(=O)N(C)CCC(=O)O)cc2)C2CCCCC2)oc2ccc(Oc3ncccc3C#N)cc12` (stereo not drawn) [Example A198, 3-{[(4-{[{5-[(3-cyanopyridin-2-yl)oxy]-3-methyl-1-benzofuran-2-yl}(cyclohexyl)methyl]amino}phenyl)carbonyl](methyl)amino}-propanoic acid], for which the inhibition at 10 µM is 87%.

As for `CCCc1nn(-c2ccc(C(F)(F)F)cn2)cc1C(Nc1ccc(C(=O)NCCC(=O)O)cc1)C1CCCCC1` (stereo not drawn) [Example 5, 3-[({4-[(cyclohexyl{3-propyl-1-[5-(trifluoromethyl)pyridin-2-yl]-1H-pyrazol-4-yl}methyl)amino]phenyl}carbonyl)amino]propanoic acid], the inhibition at 10 µM came out at 73%.

Consider `COCCOc1ccc2oc(C(Nc3ccc(C(=O)N(C)CCC(=O)O)cc3)C3CCCCC3)c(C)c2c1` (stereo not drawn) [Example A79, 3-[{[4-({cyclohexyl[5-(2-methoxyethoxy)-3-methyl-1-benzofuran-2-yl]methyl}amino)phenyl]carbonyl}(methyl)amino]propanoic acid], for which the inhibition at 10 µM stood at 73%.

`Cc1c(C(Nc2ccc(C(=O)NCCC(=O)O)cc2)C2CCCCC2)sc2ccccc12` (stereo not drawn) [Example A10, 3-{[(4-{[cyclohexyl(3-methyl-1-benzothiophen-2-yl)methyl]amino}phenyl)carbonyl]amino}propanoic acid]: the inhibition at 10 µM came to 80%.

As to `Cc1c(C(Nc2ccc(C(=O)N(C)CCC(=O)O)cc2)C2CCCCC2)oc2ccc(N3CCSCC3)cc12` (stereo not drawn) [Example A187, 3-[{[4-({cyclohexyl[3-methyl-5-(thiomorpholin-4-yl)-1-benzofuran-2-yl]methyl}amino)phenyl]carbonyl}(methyl)amino]propanoic acid], the inhibition at 10 µM is 90%.

For `Cc1c(C(Nc2ccc(C(=O)N(C)CCC(=O)O)cc2)C2CCCCC2)oc2ccc(OCc3ccc(Cl)nc3)cc12` (stereo not drawn) [Example A170, 3-{[(4-{[{5-[(6-chloropyridin-3-yl)methoxy]-3-methyl-1-benzofuran-2-yl}(cyclohexyl)methyl]amino}phenyl)carbonyl](methyl)amino}-propanoic acid], the inhibition at 10 µM amounted to 89%.

Regarding `CCC(CC)C(Nc1ccc(C(=O)NCCC(=O)O)cc1)c1oc2ccc(OC)cc2c1C` (stereo not drawn) [Example A104, 3-{[(4-{[2-ethyl-1-(5-methoxy-3-methyl-1-benzofuran-2-yl)butyl]amino}phenyl)carbonyl]amino}propanoic acid], the inhibition at 10 µM stood at 68%.

For the compound `COCc1nn(-c2ccc(OC(F)(F)F)cc2)cc1C(Nc1ccc(C(=O)NCCC(=O)O)cc1)C1CCCCC1` (stereo not drawn) [Example 33, 3-[({4-[(cyclohexyl{3-(methoxymethyl)-1-[4-(trifluoromethoxy)phenyl]-1H-pyrazol-4-yl}methyl)amino]phenyl}carbonyl)amino]propanoic acid], the inhibition at 10 µM came out at 75%.

Consider `COCc1nn(-c2ccccc2)cc1C(Nc1ccc(C(=O)NCCC(=O)O)cc1)C1CCCCC1` (stereo not drawn) [Example 37, 3-({[4-({cyclohexyl[3-(methoxymethyl)-1-phenyl-1H-pyrazol-4-yl]methyl}amino)phenyl]carbonyl}amino)propanoic acid], for which the inhibition at 10 µM stood at 70%.

On to `Cc1c(C(Nc2ccc(C(=O)NCCC(=O)O)nc2)C2CCCCC2)oc2ccc(F)cc12` (stereo not drawn) [Example A55, 3-{[(5-{[cyclohexyl(5-fluoro-3-methyl-1-benzofuran-2-yl)methyl]amino}pyridin-2-yl)carbonyl]amino}propanoic acid], for which the inhibition at 10 µM turned out to be 90%.

Turning to `Cc1c(C(Nc2ccc(C(=O)NCCC(=O)O)cc2)C2CCCCC2)oc2ccc(F)cc12` (stereo not drawn) [Example A39, 3-{[(4-{[cyclohexyl(5-fluoro-3-methyl-1-benzofuran-2-yl)methyl]amino}phenyl)carbonyl]amino}propanoic acid], the inhibition at 10 µM was found to be 78%.

`COc1ccc2oc(C(Nc3ccc(C(=O)NCCC(=O)O)cc3)C3CCCCC3)c(Br)c2c1` (stereo not drawn) [Example A102, 3-{[(4-{[(3-bromo-5-methoxy-1-benzofuran-2-yl)(cyclohexyl)methyl]amino}phenyl)carbonyl]amino}propanoic acid]: the inhibition at 10 µM worked out at 68%.

For `COc1ccc2oc(C(CC(C)C)Nc3ccc(C(=O)NCCC(=O)O)cc3)c(C)c2c1` (stereo not drawn) [Example A92, 3-{[(4-{[1-(5-methoxy-3-methyl-1-benzofuran-2-yl)-3-methylbutyl]amino}phenyl)carbonyl]amino}propanoic acid], the inhibition at 10 µM turned out to be 76%.

Consider `Cc1c(C(Nc2ccc(C(=O)NCCC(=O)O)cc2)C2CCCCC2)sc2cccnc12` (stereo not drawn) [Example A144, 3-{[(4-{[cyclohexyl(3-methylthieno[3,2-b]pyridin-2-yl)methyl]amino}phenyl)carbonyl]amino}propanoic acid], for which the inhibition at 10 µM came to 82%.

Turning to `CCc1nn(-c2ccc(OC)cc2)cc1C(Nc1ccc(C(=O)NCCC(=O)O)cc1)C1CCCCC1` (stereo not drawn) [Example 50, 3-({[4-({cyclohexyl[3-ethyl-1-(4-methoxyphenyl)-1H-pyrazol-4-yl]methyl}amino)phenyl]carbonyl}amino)propanoic acid], the inhibition at 10 µM came to 68%.

For the compound `COCCN(C)c1ccc2oc(C(Nc3ccc(C(=O)N(C)CCC(=O)O)cc3)C3CCCCC3)c(C)c2c1` (stereo not drawn) [Example A188, 3-[({4-[(cyclohexyl{5-[(2-methoxyethyl)(methyl)amino]-3-methyl-1-benzofuran-2-yl}methyl)amino]phenyl}carbonyl)(methyl)amino]propanoic acid], the inhibition at 10 µM amounted to 77%.
